US8106055B2, “Substituted amide compounds” (Gruenenthal GmbH, priority 2007, dated 2012)

Key:
[1] = molecular target: T1, bradykinin 1 receptor (B1R) of the rat (Rattus norvegicus, UniProt P97583); experiment: Functional investigation on the rat bradykinin 1 receptor (B1R), Ca2+ FLIPR assay in CHO K1 rB1R cells; type: cell-based; details: B1R antagonism rat; test substance 10 μM; Ca2+ FLIPR, CHO K1 rB1R cells
T1 construct: expressed in transfected cells; host or cells: CHO K1 cells
T1 sequence (P97583 1-337): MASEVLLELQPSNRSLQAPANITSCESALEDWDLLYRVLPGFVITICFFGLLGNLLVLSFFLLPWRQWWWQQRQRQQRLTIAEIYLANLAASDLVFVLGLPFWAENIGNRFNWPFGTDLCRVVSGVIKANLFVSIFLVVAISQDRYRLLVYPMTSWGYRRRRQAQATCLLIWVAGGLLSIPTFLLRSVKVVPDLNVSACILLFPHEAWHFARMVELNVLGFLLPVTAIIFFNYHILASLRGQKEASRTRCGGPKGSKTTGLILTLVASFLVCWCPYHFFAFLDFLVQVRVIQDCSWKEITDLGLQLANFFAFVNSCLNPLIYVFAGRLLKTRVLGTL
Method in brief: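 Cells were dye-loaded with Fluo-4 plus probenecid, then test substances added and Ca2+ influx compared with agonist control for % activation. After 10-20 min, EC80 agonist (Lys-Des-Arg9-bradykinin human; Des-Arg9-bradykinin rat) was applied; suppression gave % inhibition and IC50 values.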

[2] = molecular target: T2, human μ opiate receptor (Homo sapiens, UniProt P35372); experiment: Affinity for the human μ opiate receptor ([3H]-naloxone displacement, CHO-K1 receptor membrane preparation, SPA); type: binding; details: test concentration of 1 μM
T2 construct: purchased PerkinElmer Life Sciences, Zaventem, Belgium RB-HOM; host or cells: CHO-K1 cells (membrane preparation)
Method in brief: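 Scintillation proximity binding on human μ receptor membranes from CHO-K1 cells used 1 nmol/l [3H]-naloxone over 90 min at room temperature in 50 mmol/l Tris-HCl, 0.06% BSA. Percent inhibition was recorded at 1 μM.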

T2 sequence (P35372 whole entry): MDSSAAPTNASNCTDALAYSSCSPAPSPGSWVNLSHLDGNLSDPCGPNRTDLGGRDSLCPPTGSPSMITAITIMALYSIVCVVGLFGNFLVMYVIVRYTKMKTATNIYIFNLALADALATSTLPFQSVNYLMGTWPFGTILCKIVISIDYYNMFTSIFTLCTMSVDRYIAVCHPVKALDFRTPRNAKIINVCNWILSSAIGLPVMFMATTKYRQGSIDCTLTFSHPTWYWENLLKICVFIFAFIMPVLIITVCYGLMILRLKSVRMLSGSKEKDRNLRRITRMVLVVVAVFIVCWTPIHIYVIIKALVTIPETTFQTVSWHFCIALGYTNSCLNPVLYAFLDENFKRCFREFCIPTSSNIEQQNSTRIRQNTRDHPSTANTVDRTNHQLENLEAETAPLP

Row | Compound | B1R Ant. r [10 μM] % Inhibition [1] [%] | μ (binding on the μ opioid receptor, % inhibition) [2] [%]
1 | COc1ccc(S(=O)(=O)N2CCCCC2COCC(=O)NC2CCC(C(c3ccc(F)cc3)N(C)C)CC2)cc1 (stereo not drawn) [Example 450] | 52 | 50
2 | CN(C)C(CCc1ccccc1)C1CCC(CNC(=O)COC2CCCCC2N(C)S(=O)(=O)c2ccc(Cl)c(Cl)c2)CC1 (stereo not drawn) [Example 451] | 11 | 48
3 | Cc1ccc(S(=O)(=O)N(C)CCOCC(=O)NCC2CCC(C(CCc3ccccc3)N(C)C)CC2)cc1 (stereo not drawn) [Example 452] | 18 | 46
4 | COc1cc(C)c(S(=O)(=O)N2CCC(OCC(=O)NC3CCC(C(c4ccc(F)cc4)N(C)C)CC3)CC2)c(C)c1C (stereo not drawn) [Example 454] | 10 | 48
5 | CN(C)C(c1ccc(F)cc1)C1CCC(CCNC(=O)COC2CCN(S(=O)(=O)c3ccc(Cl)cc3Cl)C2)CC1 (stereo not drawn) [Example 456] | 48 | 50
6 | Cc1ccc(S(=O)(=O)N(C)CCOCC(=O)NCCC2CCC(C(c3ccc(F)cc3)N(C)C)CC2)cc1 (stereo not drawn) [Example 457] | 11 | 47
7 | COc1cc(C)c(S(=O)(=O)N(C)CCOCC(=O)NCC2CCC(C(c3ccc(F)cc3)N(C)C)CC2)c(C)c1 (stereo not drawn) [Example 458] | 104 | 48
8 | CN(C)C(c1ccc(Cl)cc1)C1CCC(CNC(=O)COCCN(C)S(=O)(=O)c2ccc(Cl)cc2Cl)CC1 (stereo not drawn) [Example 459] | 26 | 36
9 | COc1ccc(S(=O)(=O)N(C)CCOCC(=O)NCCC2CCC(C(c3ccc(Cl)cc3)N(C)C)CC2)cc1 (stereo not drawn) [Example 460] | 71 | 52
10 | COc1ccc(S(=O)(=O)N2CCCC2COCC(=O)NC2CCC(C(c3ccc(F)cc3)N(C)C)CC2)cc1 (stereo not drawn) [Example 461] | 20 | 43
11 | COc1ccc(S(=O)(=O)N2CCCCC2COCC(=O)NCCC2CCC(C(c3ccc(F)cc3)N(C)C)CC2)cc1OC (stereo not drawn) [Example 462] | −13 | 51
12 | CN(C)C(c1ccc(F)cc1)C1CCC(NC(=O)COC2CCN(S(=O)(=O)c3ccccc3)C2)CC1 (stereo not drawn) [Example 463] | 17 | 38
13 | CN(C)C(c1ccc(F)cc1)C1CCC(CCNC(=O)COC2CCN(S(=O)(=O)c3ccc(Cl)cc3)C2)CC1 (stereo not drawn) [Example 464] | −6 | 46
14 | CN(C)C(c1ccc(F)cc1)C1CCC(CCNC(=O)COC2CCN(S(=O)(=O)c3cccc(C(F)(F)F)c3)C2)CC1 (stereo not drawn) [Example 466] | 22 | 30
15 | COc1cc(C)c(S(=O)(=O)N2CCC(OCC(=O)NCCC3CCC(C(c4ccc(F)cc4)N(C)C)CC3)C2)c(C)c1C (stereo not drawn) [Example 467] | 47 | 40
16 | COc1cc(C)c(S(=O)(=O)N2CCCC(OCC(=O)NCCC3CCC(C(c4ccc(F)cc4)N(C)C)CC3)C2)c(C)c1C (stereo not drawn) [Example 468] | 33 | 53
17 | COc1ccc(S(=O)(=O)N2CCCCC2COCC(=O)NCC2CCC(C(CCc3ccccc3)N(C)C)CC2)cc1 (stereo not drawn) [Example 469] | 87 | 50
18 | CN(C)C(c1ccc(F)cc1)C1CCC(CCNC(=O)COCCC2CCN(S(=O)(=O)c3ccccc3)CC2)CC1 (stereo not drawn) [Example 470] | 23 | 35
19 | CN(C)C(c1ccc(Cl)cc1)C1CCC(CNC(=O)COC2CCN(S(=O)(=O)c3ccccc3)CC2)CC1 (stereo not drawn) [Example 471] | 15 | 35
20 | COc1cc(C)c(S(=O)(=O)N2CCC(OCC(=O)NCCC3CCC(C(c4ccc(Cl)cc4)N(C)C)CC3)CC2)c(C)c1C (stereo not drawn) [Example 472] | 26 | 44
21 | COc1cc(C)c(S(=O)(=O)N(CCOCC(=O)NCC2CCC(C(c3ccc(Cl)cc3)N(C)C)CC2)Cc2ccccc2)c(C)c1 (stereo not drawn) [Example 473] | −3 | 34

Row | Compound | B1R Ant. r [10 μM] % Inhibition [1] [%] | μ (binding on the μ opioid receptor, % inhibition) [2] [%]
22 | COc1ccc(S(=O)(=O)N2CCCCC2COCC(=O)NCCC2CCC(C(c3ccc(Cl)cc3)N(C)C)CC2)c(OC)c1 (stereo not drawn) [Example 474] | 10 | 46
23 | Cc1cc(C)c(S(=O)(=O)N2CCC(OCC(=O)NCC3CCC(C(CCc4ccccc4)N(C)C)CC3)C2)c(C)c1 (stereo not drawn) [Example 475] | 40 | 48
24 | CN(C)C(c1cccc(F)c1)C1CCC(CNC(=O)COC2CCN(S(=O)(=O)c3ccccc3)CC2)CC1 (stereo not drawn) [Example 477] | 17 | 51
25 | CN(C)C(c1ccc(F)cc1)C1CCC(NC(=O)COCC2CCCN(S(=O)(=O)c3ccccc3)C2)CC1 (stereo not drawn) [Example 478] | 23 | 40
26 | CN(C)C(c1ccc(F)cc1)C1CCC(CCNC(=O)COCC2CCCN(S(=O)(=O)c3ccccc3)C2)CC1 (stereo not drawn) [Example 479] | 22 | 42
27 | COc1cc(C)c(S(=O)(=O)N2CCC(OCC(=O)NCCC3CCC(C(c4ccc(F)cc4)N(C)C)CC3)CC2)c(C)c1C (stereo not drawn) [Example 480] | 4 | 38
28 | COc1cc(C)c(S(=O)(=O)N2CCC(CCOCC(=O)NCC3CCC(C(c4ccc(F)cc4)N(C)C)CC3)CC2)c(C)c1C (stereo not drawn) [Example 481] | 49 | 38
29 | COc1ccc(S(=O)(=O)N(C)CCOCC(=O)NCCC2CCC(C(c3ccc(F)cc3)N(C)C)CC2)cc1OC (stereo not drawn) [Example 484] | 19 | 35
30 | COc1cc(C)c(S(=O)(=O)N2CCCC(OCC(=O)NCCC3CCC(C(c4ccc(Cl)cc4)N(C)C)CC3)C2)c(C)c1C (stereo not drawn) [Example 485] | 6 | 46
31 | CN(C)C(c1ccc(F)cc1)C1CCC(CCNC(=O)COCCN(C)S(=O)(=O)c2ccc(F)cc2)CC1 (stereo not drawn) [Example 487] | 9 | 37
32 | CN(C)C(c1ccc(F)cc1)C1CCC(CNC(=O)COC2CCCN(S(=O)(=O)c3ccccc3)C2)CC1 (stereo not drawn) [Example 488] | −6 | 40
33 | CN(C)C(c1ccc(F)cc1)C1CCC(CCNC(=O)COCCN(Cc2ccccc2)S(=O)(=O)c2ccccc2)CC1 (stereo not drawn) [Example 489] | 22 | 35
34 | Cc1cc(C)c(S(=O)(=O)N(C)CCOCC(=O)NC2CCC(C(c3ccc(F)cc3)N(C)C)CC2)c(C)c1 (stereo not drawn) [Example 490] | 12 | 42
35 | Cc1ccc(S(=O)(=O)N2CCC(OCC(=O)NCCC3CCC(C(c4ccc(F)cc4)N(C)C)CC3)C2)cc1 (stereo not drawn) [Example 491] | 16 | 34
36 | COc1cc(C)c(S(=O)(=O)N2CCC(OCC(=O)NCCC3CCC(C(c4ccc(Cl)cc4)N(C)C)CC3)C2)c(C)c1 (stereo not drawn) [Example 492] | 78 | 44
37 | CN(C)C(c1ccc(F)cc1)C1CCC(CCNC(=O)COCCN2CCN(S(=O)(=O)c3ccccc3)CC2)CC1 (stereo not drawn) [Example 493] | 4 | 34
38 | COc1cc(C)c(S(=O)(=O)N(CCOCC(=O)NCC2CCC(C(c3ccc(F)cc3)N(C)C)CC2)Cc2ccccc2)c(C)c1 (stereo not drawn) [Example 494] | 36 | 42
39 | CN(C)C(CCc1ccccc1)C1CCC(CNC(=O)COC2CCN(S(=O)(=O)c3ccc(Cl)cc3Cl)C2)CC1 (stereo not drawn) [Example 496] | 35 | 41
40 | COc1ccc(S(=O)(=O)N2CCC(OCC(=O)NCC3CCC(C(c4ccc(F)cc4)N(C)C)CC3)C2)cc1OC (stereo not drawn) [Example 497] | 17 | 37
41 | COc1cc(C)c(S(=O)(=O)N2CCC(OCC(=O)NCC3CCC(C(c4ccc(Cl)cc4)N(C)C)CC3)CC2)c(C)c1C (stereo not drawn) [Example 498] | 2 | 36
42 | COc1cc(C)c(S(=O)(=O)N2CCC(CCOCC(=O)NCC3CCC(C(c4ccc(Cl)cc4)N(C)C)CC3)CC2)c(C)c1C (stereo not drawn) [Example 499] | −10 | 37
